# Test results published in patent publication US8614327B2 (Vertex Pharmaceuticals Incorporated, priority 2004, dated 2013).
# Biological target: T1, ΔF508-CFTR (Homo sapiens, UniProt P13569, DEL508-508)
# T1 construct: expressed in transfected cells
# Test: Membrane potential optical (FRET/VIPR) assay, identification of potentiator compounds
# Type: cell-based
# Details: Table 3, assay not given; for % Activity: relative efficacy
# Summary of the method: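 Double-addition potentiator screen: compound delivered in gluconate-substituted Cl^--free medium, membrane potential followed via CC2-DMPE/DiSBAC2(3) FRET on VIPR. Cells were ΔF508-CFTR-expressing NIH3T3 mouse fibroblasts, held 2 h at 37° C. then 24 h at 27° C. before assay.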
# T1 sequence (P13569 with tags, fused parts or gaps DEL508-508): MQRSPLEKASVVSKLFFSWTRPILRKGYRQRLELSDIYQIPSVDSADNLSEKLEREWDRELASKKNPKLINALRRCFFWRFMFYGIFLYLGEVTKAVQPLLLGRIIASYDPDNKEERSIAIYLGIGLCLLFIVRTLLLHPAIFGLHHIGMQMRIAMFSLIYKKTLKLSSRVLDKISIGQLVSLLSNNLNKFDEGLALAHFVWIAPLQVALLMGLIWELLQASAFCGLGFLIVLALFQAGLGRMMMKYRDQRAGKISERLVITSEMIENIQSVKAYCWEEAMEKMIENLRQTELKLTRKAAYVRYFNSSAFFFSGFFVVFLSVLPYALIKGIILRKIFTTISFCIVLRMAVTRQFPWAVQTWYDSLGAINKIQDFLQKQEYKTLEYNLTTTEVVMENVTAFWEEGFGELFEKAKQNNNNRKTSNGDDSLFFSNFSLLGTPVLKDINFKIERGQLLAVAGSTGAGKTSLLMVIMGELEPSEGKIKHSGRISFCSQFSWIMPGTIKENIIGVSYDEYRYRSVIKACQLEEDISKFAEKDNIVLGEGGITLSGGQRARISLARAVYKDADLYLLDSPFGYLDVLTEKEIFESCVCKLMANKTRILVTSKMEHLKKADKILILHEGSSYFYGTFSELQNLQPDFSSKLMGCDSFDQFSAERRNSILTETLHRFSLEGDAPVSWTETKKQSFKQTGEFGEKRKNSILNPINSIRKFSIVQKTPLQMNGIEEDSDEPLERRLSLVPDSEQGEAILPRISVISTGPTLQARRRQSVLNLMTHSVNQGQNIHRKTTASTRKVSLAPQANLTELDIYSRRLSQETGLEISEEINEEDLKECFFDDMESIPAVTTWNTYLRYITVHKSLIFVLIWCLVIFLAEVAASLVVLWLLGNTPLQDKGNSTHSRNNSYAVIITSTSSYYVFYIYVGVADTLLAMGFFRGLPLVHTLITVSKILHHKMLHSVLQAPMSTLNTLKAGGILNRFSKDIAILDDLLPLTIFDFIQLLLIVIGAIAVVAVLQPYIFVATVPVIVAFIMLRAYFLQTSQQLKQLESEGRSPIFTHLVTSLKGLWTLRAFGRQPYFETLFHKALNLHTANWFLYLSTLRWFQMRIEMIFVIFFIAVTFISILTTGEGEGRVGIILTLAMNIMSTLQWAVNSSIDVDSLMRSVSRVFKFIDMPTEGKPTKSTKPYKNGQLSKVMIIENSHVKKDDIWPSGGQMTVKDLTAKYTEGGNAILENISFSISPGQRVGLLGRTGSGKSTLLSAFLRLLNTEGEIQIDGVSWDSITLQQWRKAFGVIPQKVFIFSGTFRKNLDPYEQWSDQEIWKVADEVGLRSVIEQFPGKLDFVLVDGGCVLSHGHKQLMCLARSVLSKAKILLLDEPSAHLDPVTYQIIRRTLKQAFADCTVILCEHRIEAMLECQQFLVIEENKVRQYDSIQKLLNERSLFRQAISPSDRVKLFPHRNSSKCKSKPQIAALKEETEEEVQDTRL
Compound,EC50 [µM],% Activity
"O=C(Nc1cccc2ncccc12)c1c[nH]c2ccccc2c1=O [Compound 191, 4-oxo-N-(5-quinolyl)-1H-quinoline-3-carboxamide]",25 to 60,+ (<25%)
"Cc1cccnc1NC(=O)c1c[nH]c2ccccc2c1=O [Compound 192, N-(3-methyl-2-pyridyl)-4-oxo-1H-quinoline-3-carboxamide]",25 to 60,+ (<25%)
"N#Cc1ccc(NC(=O)c2c[nH]c3ccccc3c2=O)cc1 [Compound 194, N-(4-cyanophenyl)-4-oxo-1H-quinoline-3-carboxamide]",25 to 60,+ (<25%)
"Cc1ccc(NC(=O)c2c[nH]c3ccccc3c2=O)nc1 [Compound 195, N-(5-methyl-2-pyridyl)-4-oxo-1H-quinoline-3-carboxamide]",25 to 60,+ (<25%)
"O=C(Nc1ccc(C(F)(F)F)nc1)c1c[nH]c2ccccc2c1=O [Compound 197, 4-oxo-N-[6-(trifluoromethyl)-3-pyridyl]-1H-quinoline-3-carboxamide]",25 to 60,+ (<25%)
"O=C(Nc1ccc2c(c1)C(O)CCC2)c1c[nH]c2ccccc2c1=O (centres unmarked) [Compound 200, 1,4-dihydro-N-(1,2,3,4-tetrahydro-1-hydroxynaphthalen-7-yl)-4-oxoquinoline-3-carboxamide]",10 to 25,++ (between 25% to 100%)
"Cc1cccc(NC(=O)c2c[nH]c3ccccc3c2=O)c1C#N [Compound 201, N-(2-cyano-3-methyl-phenyl)-4-oxo-1H-quinoline-3-carboxamide]",10 to 25,+ (<25%)

# Now from value to compound:
EC50 [µM],% Activity,Compound
10 to 25,++ (between 25% to 100%),"COc1ccc(NC(=O)c2c[nH]c3ccccc3c2=O)c(OC)n1 [Compound 193, N-(2,6-dimethoxy-3-pyridyl)-4-oxo-1H-quinoline-3-carboxamide]"
< 10,++ (between 25% to 100%),"CC(C)(C)CC(=O)Nc1ccc(C(C)(C)C)c(NC(=O)c2c[nH]c3ccccc3c2=O)c1 [Compound 196, N-[5-(3,3-dimethylbutanoylamino)-2-tert-butyl-phenyl]-4-oxo-1H-quinoline-3-carboxamide]"
< 10,++ (between 25% to 100%),"O=C(Nc1ccc(F)cc1)c1c[nH]c2ccccc2c1=O [Compound 198, N-(4-fluorophenyl)-4-oxo-1H-quinoline-3-carboxamide]"
< 10,++ (between 25% to 100%),"Cc1ccccc1-c1ccccc1NC(=O)c1c[nH]c2ccccc2c1=O [Compound 199, N-[2-(o-tolyl)phenyl]-4-oxo-1H-quinoline-3-carboxamide]"
< 10,++ (between 25% to 100%),"COc1ccc(Cl)cc1-c1ccccc1NC(=O)c1c[nH]c2ccccc2c1=O [Compound 202, N-[2-(5-chloro-2-methoxy-phenyl)phenyl]-4-oxo-1H-quinoline-3-carboxamide]"
< 10,++ (between 25% to 100%),"O=C(Nc1ccc2ccn(Cc3ccccc3)c2c1)c1c[nH]c2ccccc2c1=O [Compound 203, N-(1-benzyl-1H-indol-6-yl)-4-oxo-1H-quinoline-3-carboxamide]"
< 10,++ (between 25% to 100%),"CC1(C)CCOc2cc(NC(=O)c3c[nH]c4ccccc4c3=O)ccc21 [Compound 204, N-(4,4-dimethylchroman-7-yl)-4-oxo-1H-quinoline-3-carboxamide]"
< 10,++ (between 25% to 100%),"COc1ccc(Oc2ccc(C(F)(F)F)cc2NC(=O)c2c[nH]c3ccccc3c2=O)cc1 [Compound 205, N-[2-(4-methoxyphenoxy)-5-(trifluoromethyl)phenyl]-4-oxo-1H-quinoline-3-carboxamide]"
< 10,++ (between 25% to 100%),"Cc1cccc(Oc2ncccc2NC(=O)c2c[nH]c3ccccc3c2=O)c1C [Compound 206, N-[2-(2,3-dimethylphenoxy)-3-pyridyl]-4-oxo-1H-quinoline-3-carboxamide]"
